Data as given in ChEMBL document CHEMBL1201862, “PubChem BioAssay data set” (2004).
The source made the active and inactive calls.

Columns and labels:
[1] = target: Protein-tyrosine kinase 2-beta (Homo sapiens, UniProt Q14289);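 further: potency of inhibitors of PYK2 kinase phosphorylation of poly-GT substrate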
[2] = target: T1, Cytochrome P450 3A4 (Homo sapiens, UniProt P08684)
[3] = target: Cytochrome P450 2C19 (Homo sapiens, UniProt P33261); assay: Cytochrome panel assay with activity outcomes. Panel member name: p450-cyp2c19 Compounds with AC50 equal or less than 10 uM are considered active; format: functional; details: read-out: AC50
Cytochrome P450 2C19, sequence (P33261 whole entry): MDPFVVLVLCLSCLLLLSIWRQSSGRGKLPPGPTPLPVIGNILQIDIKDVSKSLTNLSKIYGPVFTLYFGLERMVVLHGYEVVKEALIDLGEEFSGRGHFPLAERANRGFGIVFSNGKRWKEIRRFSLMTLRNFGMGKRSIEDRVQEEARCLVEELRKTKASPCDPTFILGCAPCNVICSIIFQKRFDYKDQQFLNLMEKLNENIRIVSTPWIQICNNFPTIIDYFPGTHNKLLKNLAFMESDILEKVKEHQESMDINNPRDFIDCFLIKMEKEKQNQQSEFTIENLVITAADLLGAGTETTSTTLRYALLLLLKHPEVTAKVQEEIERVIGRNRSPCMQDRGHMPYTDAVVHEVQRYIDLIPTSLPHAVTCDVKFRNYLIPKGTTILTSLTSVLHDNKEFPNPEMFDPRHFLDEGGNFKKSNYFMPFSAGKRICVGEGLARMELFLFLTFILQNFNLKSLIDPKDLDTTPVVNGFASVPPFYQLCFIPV

[4] = target: T1, Cytochrome P450 3A4; details: Potency
[5] = target: T2, Aminopeptidase N (Plasmodium falciparum FcB1/Columbia, UniProt O96935); assay: P. falciparum M1AAP inhibitors, biochemical, fluorogenic H-Leu-NHMec substrate, 1536-well (AID 1445); set-up: species or system Plasmodium falciparum 3D7, 3D7
T2 sequence (O96935 whole entry): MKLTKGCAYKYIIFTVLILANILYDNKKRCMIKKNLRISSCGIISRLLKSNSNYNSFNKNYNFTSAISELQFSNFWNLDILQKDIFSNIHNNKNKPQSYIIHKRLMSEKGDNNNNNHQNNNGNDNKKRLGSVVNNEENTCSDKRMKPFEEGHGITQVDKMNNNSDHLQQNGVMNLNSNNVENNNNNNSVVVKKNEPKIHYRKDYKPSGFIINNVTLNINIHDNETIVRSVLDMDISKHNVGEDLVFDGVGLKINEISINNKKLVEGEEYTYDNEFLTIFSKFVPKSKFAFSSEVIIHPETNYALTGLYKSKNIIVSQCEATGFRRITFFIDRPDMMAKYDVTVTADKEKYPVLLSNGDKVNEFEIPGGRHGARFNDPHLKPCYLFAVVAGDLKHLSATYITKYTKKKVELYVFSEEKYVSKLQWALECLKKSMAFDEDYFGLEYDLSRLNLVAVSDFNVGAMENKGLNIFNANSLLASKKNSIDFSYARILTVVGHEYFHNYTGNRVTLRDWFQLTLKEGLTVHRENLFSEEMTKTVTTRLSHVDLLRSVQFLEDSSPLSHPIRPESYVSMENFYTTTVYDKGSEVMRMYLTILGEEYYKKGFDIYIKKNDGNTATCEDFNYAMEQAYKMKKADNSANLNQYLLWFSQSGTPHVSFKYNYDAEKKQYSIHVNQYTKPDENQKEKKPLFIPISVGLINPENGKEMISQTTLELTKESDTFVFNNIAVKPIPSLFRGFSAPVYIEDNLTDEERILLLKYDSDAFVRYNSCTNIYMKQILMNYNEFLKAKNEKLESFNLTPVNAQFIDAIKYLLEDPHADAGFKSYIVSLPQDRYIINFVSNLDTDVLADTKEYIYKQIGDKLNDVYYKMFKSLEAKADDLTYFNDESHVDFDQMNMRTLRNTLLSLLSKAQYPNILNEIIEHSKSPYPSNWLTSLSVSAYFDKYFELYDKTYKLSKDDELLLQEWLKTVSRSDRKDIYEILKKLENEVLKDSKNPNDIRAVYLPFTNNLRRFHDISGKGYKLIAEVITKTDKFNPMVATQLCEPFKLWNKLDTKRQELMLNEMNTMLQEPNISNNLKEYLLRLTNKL

[6] = target: Prothrombin (Homo sapiens, UniProt P00734); assay: Thrombin 1536 HTS Dose Response Confirmation. [Related pubchem assays: 1046 (Thrombin 1536 HTS; hits were confirmed in this assay)]; format: functional
[7] = cytotoxicity in HEK-293T cells, dose response, cytotoxicity control for BCR NF-kB inhibitor project, luminescence, B-cell screen hits (AID 489021); format: functional, cell-based;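 further: HEK-293T cells carrying an NF-kB luciferase reporter; cells exposed to compound for about 14 hours before viability readout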
[8] = target: T3, Lysosomal acid glucosylceramidase (Homo sapiens, UniProt P04062); assay: Dose response cell-based high throughput screening assay to identify enhancers of beta-glucosidase activity. [Related pubchem assays: 784 ]; format: functional
T3 sequence (P04062 whole entry): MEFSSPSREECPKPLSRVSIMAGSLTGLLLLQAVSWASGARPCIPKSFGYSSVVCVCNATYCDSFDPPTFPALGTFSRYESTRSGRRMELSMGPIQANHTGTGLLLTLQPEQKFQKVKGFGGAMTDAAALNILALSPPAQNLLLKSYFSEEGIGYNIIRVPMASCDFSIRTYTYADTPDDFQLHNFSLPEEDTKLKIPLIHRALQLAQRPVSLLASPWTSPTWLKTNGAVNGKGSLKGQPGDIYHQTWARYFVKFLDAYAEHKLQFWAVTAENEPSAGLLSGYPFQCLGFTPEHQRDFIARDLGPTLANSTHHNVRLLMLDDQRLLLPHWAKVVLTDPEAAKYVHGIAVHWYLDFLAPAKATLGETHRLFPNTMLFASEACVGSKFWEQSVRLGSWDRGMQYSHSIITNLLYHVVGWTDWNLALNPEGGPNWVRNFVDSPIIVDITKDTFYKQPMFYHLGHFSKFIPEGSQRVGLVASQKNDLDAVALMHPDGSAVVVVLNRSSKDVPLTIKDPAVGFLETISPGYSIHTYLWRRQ

[9] = THP-1 cell cytotoxicity, dose response, cytotoxicity control for non-replicating M. tuberculosis project (AID 489025); format: functional
[10] = cells; format: functional
[11] = target: Heat shock protein HSP 90-alpha (Homo sapiens, UniProt P07900); assay: Luminescence-based dose response biochemical high throughput screening assay for inhibitors of the Heat Shock Protein 90 (HSP90). [Related pubchem assays: 1831 (Summary AID.), 1846 (Confirmation screen.), 1789 (Primary screen.)]

T1 sequence (P08684 whole entry): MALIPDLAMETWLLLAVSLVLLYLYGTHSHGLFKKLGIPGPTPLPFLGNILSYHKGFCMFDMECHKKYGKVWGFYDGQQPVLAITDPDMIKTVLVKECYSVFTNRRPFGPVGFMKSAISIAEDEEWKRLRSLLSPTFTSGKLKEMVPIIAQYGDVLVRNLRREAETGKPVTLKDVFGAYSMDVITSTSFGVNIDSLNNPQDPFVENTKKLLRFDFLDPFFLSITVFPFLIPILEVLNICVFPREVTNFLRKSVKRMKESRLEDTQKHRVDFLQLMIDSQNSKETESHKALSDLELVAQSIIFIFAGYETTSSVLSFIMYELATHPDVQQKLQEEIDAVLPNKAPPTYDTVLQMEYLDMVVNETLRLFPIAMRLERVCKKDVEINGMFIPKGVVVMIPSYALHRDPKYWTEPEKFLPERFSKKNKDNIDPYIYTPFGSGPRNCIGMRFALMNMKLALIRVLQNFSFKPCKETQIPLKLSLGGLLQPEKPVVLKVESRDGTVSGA
Protein-tyrosine kinase 2-beta, sequence (Q14289 whole entry): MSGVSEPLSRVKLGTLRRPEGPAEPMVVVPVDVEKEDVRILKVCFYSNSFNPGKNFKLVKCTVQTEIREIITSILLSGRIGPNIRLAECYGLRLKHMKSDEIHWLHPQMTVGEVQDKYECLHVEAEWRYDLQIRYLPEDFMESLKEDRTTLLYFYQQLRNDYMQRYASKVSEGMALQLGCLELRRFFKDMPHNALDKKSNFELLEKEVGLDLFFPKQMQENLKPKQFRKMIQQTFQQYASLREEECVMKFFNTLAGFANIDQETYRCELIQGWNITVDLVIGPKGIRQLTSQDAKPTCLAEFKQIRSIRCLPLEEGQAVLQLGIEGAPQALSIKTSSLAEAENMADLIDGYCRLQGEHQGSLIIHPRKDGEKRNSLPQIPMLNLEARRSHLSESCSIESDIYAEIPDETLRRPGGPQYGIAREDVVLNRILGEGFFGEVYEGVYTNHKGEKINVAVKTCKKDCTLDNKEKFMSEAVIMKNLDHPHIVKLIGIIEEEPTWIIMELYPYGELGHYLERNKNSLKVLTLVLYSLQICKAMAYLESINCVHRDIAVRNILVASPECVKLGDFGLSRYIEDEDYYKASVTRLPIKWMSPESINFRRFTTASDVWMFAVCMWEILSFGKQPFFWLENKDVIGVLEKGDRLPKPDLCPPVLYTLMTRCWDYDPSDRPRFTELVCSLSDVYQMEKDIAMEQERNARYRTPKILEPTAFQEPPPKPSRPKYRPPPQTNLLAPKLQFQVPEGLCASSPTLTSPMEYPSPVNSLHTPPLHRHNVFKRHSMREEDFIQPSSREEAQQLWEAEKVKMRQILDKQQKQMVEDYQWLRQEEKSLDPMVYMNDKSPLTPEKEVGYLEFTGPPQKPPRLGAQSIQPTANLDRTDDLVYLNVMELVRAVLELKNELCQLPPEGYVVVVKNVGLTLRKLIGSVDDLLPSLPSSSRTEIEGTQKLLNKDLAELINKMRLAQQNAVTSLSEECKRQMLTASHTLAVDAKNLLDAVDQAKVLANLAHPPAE

Cc1n[nH]c(C)c1N=Nc1cc(Cl)ccc1Cl
IC50 [1]: > 69.5 µM (not active) | AC50 [2]: 17.8 µM (inconclusive) | AC50 [3]: 1.12 µM (inconclusive)

CCC(=O)OCC(=O)C1(OC(=O)CC)C(C)CC2C3CCC4=CC(=O)C=CC4(C)C3(Cl)C(O)CC21C (stereo unspecified)
AC50 [4]: 12.6 µM (inconclusive)

CCCCc1cc(=O)oc2c(CN(C)C)c(O)c(Cl)cc12
IC50 [5]: 27.3 µM (active)

Cc1cc(=O)oc2cc(OC(=O)c3ccco3)ccc12
IC50 [6]: 0.949 µM (active)

CCCn1c2c(c(O)c(C(=O)Nc3nccs3)c1=O)CCCC2
IC50 [6]: > 50 µM (not active)

Cn1c(=O)cc(OCCCC(=O)N2CCCCC2)c2ccccc21
IC50 [7]: > 80 µM (inactive)

O=C(CSc1nc(-c2ccccc2)nn1C(=O)c1ccccc1)Nc1cccc([N+](=O)[O-])c1
IC50 [6]: 1.39 µM (active)

Cc1cc(NC(=O)CSc2nc3ccccc3[nH]2)no1
EC50 [8]: > 50 µM (not active)

O=C(OCC(=O)N1CCN(c2ccccc2)CC1)c1cnc(Cl)c(Cl)c1
CC50 [9]: 34.2 µM (active) | IC50 [10]: 3.69 µM (active)

CCN(CC)S(=O)(=O)c1ccc(NC(=O)CN(c2cccc(F)c2)S(C)(=O)=O)cc1
EC50 [8]: > 50 µM (not active)

CC(C)C[C@@H](N)c1nnc(SCC(=O)c2ccc(Cl)cc2)o1
IC50 [7]: > 80 µM (inactive)

Cc1nc(C)c(-c2csc(NCc3ccco3)n2)s1
EC50 [8]: > 50 µM (not active)

CC(C)(C)c1ccc(C(=O)c2c[nH]c(C(=O)O)c2)cc1
IC50 [11]: 0.469 µM (active)
